Values quoted from earlier work, collected in patent US12678407B2 (HANMI PHARM. CO., LTD., priority 2020, dated 2026).

Conditions: according to FDA Clinical Pharmacology Biopharmaceutics Review

| bioavailability [%] | Compound |
| --- | --- |
| 78 | N[C@@H](CC(=O)N1CCn2c(nnc2C(F)(F)F)C1)Cc1cc(F)c(F)cc1F [sitagliptin, (R)-3-amino-1-(3-(trifluoromethyl)-5,6-dihydro-[1,2,4]triazole[4,3-a]pyrazin-7(8H)-yl)-4-(2,4,5-trifluorophenyl)butan-1-one] |
| 87 | CCOc1ccc(Cc2cc([C@@H]3O[C@H](CO)[C@@H](O)[C@H](O)[C@H]3O)ccc2Cl)cc1 [dapagliflozin, (2S,3R,4R,5S,6R)-2-[4-chloro-3-(4-ethoxybenzyl)phenyl]-6-(hydroxymethyl)tetrahydro-2H-pyran-3,4,5-triol] |
